Consider three compounds from publication PMC9298070, “Lack of a Clinically Meaningful Drug Interaction Between the HIV‐1 Antiretroviral Agents Islatravir, Dolutegravir, and Tenofovir Disoproxil Fumarate” (Clinical Pharmacology in Drug Development, 2021).

Structures can show the parent of a compound that is named as a salt. Where two headings read alike, the source gives them in different places. Bounds are passed on as bounds.

Data set [1] is described as follows: Plasma pharmacokinetics in phase 1, open-label, fixed-sequence, 2-period drug interaction trial (MK-8591-005). The format is in vivo, human. The settings on record: for C24, GMR (90%CI): Islatravir + Dolutegravir + TDF / Dolutegravir + TDF; for half-life / concentration at 24 h / AUC / Cmax / Tmax: human, oral; for half-life / concentration at 24 h / Cmax, GM (95%CI) / tmax, median (min‐max) / Apparent terminal t1/2, geometric mean (geometric CV %) / AUC / Cmax / Tmax: plasma, N = 12; for Tmax: read-out: tmax, median (min‐max). On the procedure: (§1) This was a phase 1, open‐label, fixed‐sequence, 2‐period trial in adults without HIV (protocol MK‐8591‐005). In period 1, participants received a single oral dose of 20 mg islatravir. In period 2, participants received multiple oral doses of 50 mg dolutegravir and 300 mg TDF once daily for 11 consecutive days (days 1‐11), with a single oral dose of 20 mg islatravir coadministered on day 8. There was a washout period of ≥7 days between islatravir dosing in period 1 and the first dose of dolutegravir and TDF in period 2 (Figure 1).
Blood samples for islatravir plasma analysis were collected before dosing and at selected time points over 96 hours following administration of islatravir on day 1 of period 1 and day 8 of period 2. In period 2, samples taken at 24, 48, and 72 hours for islatravir plasma analysis were collected before dose administration of dolutegravir and TDF. Blood samples for plasma analysis of dolutegravir and tenofovir were collected before dosing on days 1, 7, and 8 of period 2 and at selected time points over 24 hours after dosing on days 7 and 8 of period 2. The 24 hour samples for dolutegravir and tenofovir analysis for days 7 and 8 were collected before dosing of dolutegravir and TDF.
Plasma concentrations of islatravir, dolutegravir, and tenofovir were determined by inVentiv Health Clinique (Québec City, Québec, Canada) using validated high‐performance liquid chromatography coupled to tandem mass spectrometry methods.
Islatravir (m/z 294.000/154.000) was extracted using an automated protein precipitation method using [^13C,^15N3]‐ISL as internal standard (m/z 297.800/158.000). The extracted samples were assessed on a system equipped with a X Select HSS T3 C18, 50×2.1 mm, 2.5 μm column with water/acetonitrile with formic acid mobile phase. […] The lower limit of quantitation for islatravir was 0.10 ng/mL, with an analytical range of 0.10 to 100.00 ng/mL.
Dolutegravir (m/z 420.200/277.200) was extracted using an automated protein precipitation method using [C^13‐d5]‐dolutegravir as the internal standard (m/z 426.300/277.300). The extracted samples were assessed on a system equipped with an ACE 3 C18, 30 × 4.6 mm, 3 μm column (Avantor, Radnor, Pennsylvania) with water/methanol with ammonium formate and formic acid mobile phase. […] The lower limit of quantitation for dolutegravir was 10.00 ng/mL, with an analytical range of 10.00 to 10 000.00 ng/mL.
Tenofovir (m/z 288.200/176.200) was extracted using an automated solid phase extraction using tenofovir‐d6 as internal standard (m/z 294.100/182.300). The extracted samples were assessed on a system equipped with an Atlantis dC18, 75 × 4.6 mm, 3 μm column (Waters Corp., Milford, Massachusetts) with water/acetonitrile with ammonium formate and formic acid mobile phase. […] The lower limit of quantitation for tenofovir was 0.50 ng/mL, with an analytical range of 0.50 to 500.00 ng/mL.
Plasma islatravir, dolutegravir, and tenofovir pharmacokinetics were summarized descriptively. Pharmacokinetic parameter values were calculated using the software Phoenix WinNonlin version 6.3 (Certara, Princeton, New Jersey). Cmax, C24, and tmax values were obtained directly from the observed plasma concentration–time data.

On the set-up of data set [2]: method as in PMID 19884365. The note with it: once-daily multiple dosing; cited from earlier work.
The nature of data set [3]: Safety and tolerability in the phase 1 trial (adverse event reports, laboratory tests, ECG, vital signs). The format is in vivo, human. The note with it: after administration of dolutegravir and TDF; of 12 participants. The protocol: as §1
Safety and tolerability were monitored by repeated clinical and laboratory evaluations for the duration of the trial. Safety evaluations included adverse event (AE) reports, laboratory tests, 12‐lead electrocardiograms, and vital signs.
Incidence of adverse experiences was descriptively summarized.

For data set [4] the following is noted: in vivo; cited from earlier work.
[5] abbreviates: steady state, 50 mg dolutegravir + 300 mg TDF once daily days 1-7, period 2, without islatravir, read-out: Apparent terminal t1/2, geometric mean (geometric CV %) (converted).
Where [6] appears, read: steady state, 50 mg dolutegravir + 300 mg TDF once daily days 1-7, period 2, without islatravir, read-out: Apparent terminal t1/2, AM (SD) (converted).
[7] abbreviates: steady state, 50 mg dolutegravir + 300 mg TDF once daily days 1-7, period 2, without islatravir, read-out: C24, AM (SD).
[8] abbreviates: steady state, 50 mg dolutegravir + 300 mg TDF once daily days 1-7, period 2, without islatravir, read-out: C24, GM (95%CI).
[9] abbreviates: 50 mg dolutegravir + 300 mg TDF once daily with single 20 mg islatravir on day 8, period 2, read-out: C24, AM (SD).
Setting [10] is: 50 mg dolutegravir + 300 mg TDF once daily with single 20 mg islatravir on day 8, period 2, read-out: C24, GM (95%CI).
The mark [11] stands for this setting: steady state, 50 mg dolutegravir + 300 mg TDF once daily days 1-7, period 2, without islatravir.
The mark [12] stands for this setting: 50 mg dolutegravir + 300 mg TDF once daily with single 20 mg islatravir on day 8, period 2.

Regarding `C[C@@H]1CCO[C@H]2Cn3cc(C(=O)NCc4ccc(F)cc4F)c(=O)c(O)c3C(=O)N12` [Dolutegravir], the “C24, GMR (90%CI)” value in data set [1] is given as 1.10 (1.03‐1.17). The half-life in data set [1] (setting [5]) was 15.2 h; in data set [1] (setting [6]), 15.3 h; in data set [1] (50 mg dolutegravir + 300 mg TDF once daily with single 20 mg islatravir on day 8, period 2, read-out: Apparent terminal t1/2, AM (SD) (converted)) it was 15.7 h. Besides, the concentration at 24 h in data set [1] (setting [7]) came to 1220 ng/mL; in data set [1] (setting [8]) it was 1120 ng/mL; in data set [1] (setting [9]), 1310 ng/mL; in data set [1] (setting [10]) it was 1240 ng/mL. In addition, the “Cmax, GM (95%CI)” value is on record as 3500 (2770‐4430) ng/mL in data set [1] (setting [11]) and 3570 (2950‐4330) ng/mL in data set [1] (setting [12]). For the same compound, the results for the “tmax, median (min‐max)” value in data set [1] (setting [11]) and in data set [1] (setting [12]) were 2.50 (0.50‐4.13) h and 3.00 (1.00‐6.03) h, respectively. In data set [1] (setting [12]), the “Apparent terminal t1/2, geometric mean (geometric CV %)” value is 15.5 (16.2) h. Further, the “time to steady‐state concentrations” value in data set [2] is not above 5 days. Also, the “participants reporting AEs considered drug-related” value in data set [3] was found to be 3 participants.
Regarding `CC(C)OC(=O)OCOP(=O)(CO[C@H](C)Cn1cnc2c(N)ncnc21)OCOC(=O)OC(C)C` [TDF, tenofovir disoproxil fumarate], in data set [3], the “participants reporting AEs considered drug-related” value came out at 3 participants.
On to `C[C@H](Cn1cnc2c(N)ncnc21)OCP(=O)(O)O` [Tenofovir], for which the “time to steady‐state concentrations” value in data set [4] was not above 7 days. Moreover, the “C24, GMR (90%CI)” value in data set [1] is 1.05 (0.97‐1.14). Besides, the half-life in data set [1] (setting [5]) was 13.7 h; in data set [1] (setting [6]) it was 13.8 h. Moreover, the AUC in data set [1] (steady state, 50 mg dolutegravir + 300 mg TDF once daily days 1-7, period 2, without islatravir, read-out: AUC0‐24, AM (SD)) was 2250 ng·h/mL; in data set [1] (steady state, 50 mg dolutegravir + 300 mg TDF once daily days 1-7, period 2, without islatravir, read-out: AUC0‐24, GM (95%CI)), 2220 ng·h/mL; in data set [1] (50 mg dolutegravir + 300 mg TDF once daily with single 20 mg islatravir on day 8, period 2, read-out: AUC0‐24, AM (SD)), 2350 ng·h/mL; in data set [1] (50 mg dolutegravir + 300 mg TDF once daily with single 20 mg islatravir on day 8, period 2, read-out: AUC0‐24, GM (95%CI)) it was 2330 ng·h/mL. Further, the concentration at 24 h was 43.6 ng/mL in data set [1] (setting [7]), 42.6 ng/mL in data set [1] (setting [8]), 45.3 ng/mL in data set [1] (setting [9]) and 44.8 ng/mL in data set [1] (setting [10]). Moreover, the Cmax in data set [1] (steady state, 50 mg dolutegravir + 300 mg TDF once daily days 1-7, period 2, without islatravir, read-out: Cmax, AM (SD)) is 346 ng/mL; in data set [1] (steady state, 50 mg dolutegravir + 300 mg TDF once daily days 1-7, period 2, without islatravir, read-out: Cmax, GM (95%CI)), 339 ng/mL; in data set [1] (50 mg dolutegravir + 300 mg TDF once daily with single 20 mg islatravir on day 8, period 2, read-out: Cmax, AM (SD)), 343 ng/mL; in data set [1] (50 mg dolutegravir + 300 mg TDF once daily with single 20 mg islatravir on day 8, period 2, read-out: Cmax, GM (95%CI)), 333 ng/mL. Also, the figures for the Tmax in data set [1] (setting [11]) and in data set [1] (setting [12]) were 1 h and 1.01 h, respectively. Further, in data set [1] (setting [12]), the “Apparent terminal t1/2, geometric mean (geometric CV %)” value is 13.2 (11.0) h.
